This is an account of results in patent US9388143B2, “Polymorph of N-(3-{[(2Z)-3-[(2-chloro-5-methoxyphenyl)amino]quinoxalin-2(1H)-ylidene]sulfamoyl}phenyl)-2-methylalaninamide” (Sanofi, priority 2012, dated 2016).

Holding throughout (format): physicochemical
The nature of data set [1]: Stability of polymorph E in competition with polymorph A (slurry in solvent, X-ray powder diffraction). On the procedure: (§1) To verify the stability of polymorph E, trials were performed at the laboratory scale, by putting polymorph E in competition with compound (I) (polymorph A) and with the THF solvated form in mixtures of solvent.
Polymorph E was first put in competition with compound (I) (polymorph A) (mixture 50/50, w/w) in ethanol/THF 80/20% v/v. This stability test was performed at ambient temperature under magnetic stirring for 24 hours, then the solid was filtered, dried, then analyzed by X-ray powder diffraction. […] Similar experiments were performed in ethanol 100% at various concentrations.
Polymorph E stability also was tested as a suspension in 100% ethanol at room temperature, seeded with compound (I) (polymorph A).

A short description of data set [2]: Stability of polymorph E in competition with the THF solvated form (slurry in THF/ethanol). On the procedure: as §1
Polymorph E was also put in competition with the solvated form of compound (I) obtained in from THF. A mixture of the THF solvated form and polymorph E (50/50, w/w) was left under stirring for 24 hours in 40V of THF/ethanol (50/50, v/v) at room temperature.

Data set [3] can be described thus: Differential scanning calorimetry, relative stability of polymorphs A and E by the rules of Burger. Conditions: from DSC melting point and enthalpy of fusion. (In general: Differential scanning calorimetry records heat flow against a reference as temperature is scanned.)
The mark [4] stands for this setting: under the competition conditions described.

With `COc1ccc(Cl)c(Nc2nc3ccccc3nc2NS(=O)(=O)c2cccc(NC(=O)C(C)(C)N)c2)c1` [Polymorph E, N-(3-{[(2Z)-3-[(2-chloro-5-methoxyphenyl)amino]quinoxalin-2(1H)-ylidene]sulfamoyl}phenyl)-2-methylalaninamide], the “solid form found after competition” value in data set [1] (competition with polymorph A, ethanol 100%, various concentrations) is “Polymorph E was always obtained”. For the same compound, the “solid form found by X-ray powder diffraction after competition” value in data set [1] (mixture 50/50 w/w with polymorph A, ethanol/THF 80/20% v/v, ambient temperature, magnetic stirring, 24 hours) is given as “Polymorph E was obtained”. In addition, the “solid form found by X-ray powder diffraction after seeding” value in data set [1] (suspension in 100% ethanol, room temperature, seeded with polymorph A, 24 hours) is recorded as “only polymorph E”. Also, the “relative stability versus polymorph A” value in data set [1] (setting [4]) is reported as “more stable than the polymorph A of compound (I)”. Moreover, in data set [2] (mixture 50/50 w/w with THF solvated form, 40V THF/ethanol 50/50 v/v, room temperature, stirring 24 hours), the “solid form present at the end of competition” value is recorded as “only polymorph E was present”. Moreover, the “relative stability versus THF-solvated form” value in data set [2] (setting [4]) is recorded as “more stable than the THF-solvated form”. Besides, the “thermodynamic stability relationship between polymorphs A and E (monotropic)” value in data set [3] is on record as “the more stable one”.
